{
  "source": "patent US8252832B2",
  "about": "“Kinesin inhibitors as cancer therapeutics” (Novartis AG, priority 2007, dated 2012)",
  "type_in_all_cases": "in vivo, mouse",
  "key": {"KB8.5 tumor xenograft": {"test_system": "KB8.5 tumor xenograft", "test": "KB8.5 tumor xenograft model (P-gp expressing), tumor response", "details": "q4d × 3", "description": "Cells were cultured for fewer than 10 passages prior to use. […] All data were expressed as mean and SEM. Between-groups comparisons for final tumor measurements were performed using the one-way ANOVA pair-wise analysis. Significance was determined using Kruskal-Wallis one-way ANOVA on Ranks, followed by appropriate post-hoc test (Dunn's Method or Tukey Test) for multiple pair-wise comparisons. Statistical analysis was carried out using SigmaStat (Systat Software Inc., San Jose, Calif.)."}, "[1]": {"test_system": "MV4; 11 human AML subcutaneous xenograft tumors", "test": "Subcutaneous MV4; 11 tumor xenograft model, tumor response", "description": "Subcutaneous tumor efficacy studies were performed using outbred athymic nu/nu mice approximately 6-8 weeks old (Charles River Laboratories, Hollister, Calif.). The efficacy study in the disseminated disease model was performed using immunodeficient NOD-SCID female mice approximately 7-8 weeks old (Jackson Laboratories, Bar Harbor, Me.). […] Routine animal care and assurance of welfare were as described above.\nHuman MV4; 11 acute myelogenous leukemia cells were obtained from American Tissue Culture Collection (catalog #CRL-9591, Rockville, Md.) and tested to be free of Mycoplasma sp. and murine viruses in the IMPACT1 PCR assay panel (RADIL, University of Missouri, Columbia, Mo.). For the disseminated disease model, a stable pool of MV4; 11 cells expressing the luciferase gene was received from Fangxian Sun at the Genomics Institute of the Novartis Research Foundation in San Diego, Calif. (MV4; 11-luc). The MV4; 11 cells were grown in Iscove's modified Dulbecco's medium (Mediatech Inc., catalog #15-016-CV) supplemented with 10% fetal bovine serum (JRH Biosciences, catalog #12003-1000M), 4 mM L-glutamine and 5 ng/mL recombinant human […] (GM-CSF) (R&D Systems, catalog #215-GM). MV4; 11-luc were grown in the same media, but with the addition of 2 micrograms/mL of puromycin for selection of luciferase expression. These cells were grown as suspension cultures, maintained at 37° C. in a humidified atmosphere containing 5% carbon dioxide. Cells were cultured for fewer than 10 passages prior to use. Cells were harvested at approximately 2 million cells/mL, and centrifuged at ˜800×g for 5 minutes at 4° C. and then resuspended in a cold HBSS (Mediatech Inc., catalog #21-021-CV) at a concentration of 25 million cells/mL (containing 50% Matrigel™, BD Biosciences, catalog #354234) for implantation subcutaneously (injection volume of 0.2 mL) or at a concentration of 100 million cells/mL for implantation intravenously (i.v.) via the tail vein (injection volume of 0.1 mL). Mice were irradiated with 3 gray for 3 minutes one day prior to the i.v. cell implant.\nThe compound IIa (free base) and SB-715992 (free base) were formulated in 20% Captisol for a dose volume of 8 mL/kg. Doses were adjusted to each animal's body weight.\nFor the two efficacy evaluations in the subcutaneous tumor model, 10 million cells combined in a 1:1 mixture of HBSS and Matrigel™ were injected subcutaneously in the right flank in a total volume of 0.2 mL/mouse. […] Tumor volume was calculated as (L×W2)/2."}, "[2]": {"test": "Subcutaneous KMS-11-luc tumor xenograft model, host response", "description": "Experiments were performed using immunodeficient SCID-Beige female mice approximately 7-8 weeks old (Charles River Laboratories, Wilmington, Mass.). […] Routine animal care and assurance of welfare were as described above.\nCompound IIa and SB-715992 (free base) were formulated in 20% Captisol for a dose volume of 8 mL/kg. Doses were adjusted to each animal's body weight.\nFor the efficacy evaluation in the subcutaneous tumor model, 10 million cells combined in a 1:1 mixture of HBSS and Matrigel™ were injected subcutaneously in the right flank in a total volume of […]. […] Tumor volume was calculated as (L×W2)/2. […] Data analysis was as described above."}, "[3]": {"details": "Study 2, 1.8 mg/kg, Q4d × 3, i.v"}, "[4]": {"details": "Study 2, 3.5 mg/kg, Q4d × 3, i.v"}, "[5]": {"details": "Study 2, 7.5 mg/kg, Q4d × 3, i.v"}, "[6]": {"details": "Study 2, 0.13 mg/kg, q4d × 3, i.v"}, "[7]": {"details": "Study 2, 0.25 mg/kg, q4d × 3, i.v"}, "[8]": {"details": "Study 2, 0.5 mg/kg, q4d × 3, i.v"}},
  "note": "“And” between values parts separate entries of the source, which are not always exact repeats. Equal entries are not always repeated.",
  "data": [
    {"smiles": "Cc1ccc(C(=O)N(CCCN)[C@@H](c2nc3cc(Cl)ccc3c(=O)n2Cc2ccccc2)C(C)C)cc1", "note": "[SB-715992, Ispinesib, reference compound]", "values": [
      {"measurement": "ΔT/ΔC, Day 11 (%)", "setting": "KB8.5 tumor xenograft; 15 mg/kg, i.v.", "result": 56, "unit": "%"},
      {"measurement": "ΔT/ΔC, Day 11 (%)", "setting": "KB8.5 tumor xenograft; Table 14 study, 15 mg/kg, i.v.", "result": 77, "unit": "%"},
      {"measurement": "ΔT/ΔC, Day 11 (%)", "setting": "KB8.5 tumor xenograft; Table 15 study, 15 mg/kg, i.v., not statistically different from vehicle", "result": 60, "unit": "%"},
      {"measurement": "CR (complete tumor regressions)", "setting": "[1]; 15 mg/kg, q4d × 3, i.v.", "result": "6/9 and 6"},
      {"measurement": "Δ Tumor volume, Day 24", "setting": "[1]; 15 mg/kg, q4d × 3, i.v.", "result": "−211 ± 28", "unit": "mm^3"},
      {"measurement": "% Max Regression (Day)", "setting": "[1]; 15 mg/kg, q4d × 3, i.v., D60", "result": 98, "unit": "%"},
      {"measurement": "CR (complete tumor regressions)", "setting": "[1]; [3]", "result": 0},
      {"measurement": "Δ Tumor volume, Day 21", "setting": "[1]; [3]", "result": "339 ± 218", "unit": "mm^3"},
      {"measurement": "ΔT/ΔC, Day 21 (%)", "setting": "[1]; [3]", "result": 59, "unit": "%"},
      {"measurement": "CR (complete tumor regressions)", "setting": "[1]; [4]", "result": 0},
      {"measurement": "Δ Tumor volume, Day 21", "setting": "[1]; [4]", "result": "251 ± 132", "unit": "mm^3"},
      {"measurement": "ΔT/ΔC, Day 21 (%)", "setting": "[1]; [4]", "result": 44, "unit": "%"},
      {"measurement": "% Max. Regression (Day)", "setting": "[1]; Study 2, 3.5 mg/kg, Q4d × 3, i.v, D10", "result": "41 (D10) %"},
      {"measurement": "CR (complete tumor regressions)", "setting": "[1]; [5]", "result": 3},
      {"measurement": "Δ Tumor volume, Day 21", "setting": "[1]; [5]", "result": "−204 ± 20", "unit": "mm^3"},
      {"measurement": "% Max. Regression (Day)", "setting": "[1]; Study 2, 7.5 mg/kg, Q4d × 3, i.v, D31", "result": "75 (D31) %"},
      {"measurement": "Survival (alive/total)", "setting": "[2]; 7.5 mg/kg, Q4d × 3, i.v.", "result": "9/9"},
      {"measurement": "Max. Δ body weight (Day)", "setting": "[2]; 7.5 mg/kg, Q4d × 3, i.v., D10", "result": "-0.96 ± 0.31", "unit": "g"},
      {"measurement": "Max. Δ body weight (Day) (%)", "setting": "[2]; 7.5 mg/kg, Q4d × 3, i.v., D10", "result": "−4.8 ± 1.93", "unit": "%"}
    ]},
    {"smiles": "CC(=O)O[C@H]1C(=O)[C@@]2(C)[C@H]([C@H](OC(=O)c3ccccc3)[C@]3(O)C[C@H](OC(=O)[C@H](O)[C@@H](NC(=O)c4ccccc4)c4ccccc4)C(C)=C1C3(C)C)[C@]1(OC(C)=O)CO[C@@H]1C[C@@H]2O", "note": "[Paclitaxel, reference compound]", "values": [
      {"measurement": "ΔT/ΔC, Day 11 (%)", "setting": "KB8.5 tumor xenograft; 30 mg/kg, i.p.", "result": 78, "unit": "%"},
      {"measurement": "ΔT/ΔC, Day 11 (%)", "setting": "KB8.5 tumor xenograft; Table 14 study, 30 mg/kg, i.p.", "result": 87, "unit": "%"},
      {"measurement": "ΔT/ΔC, Day 11 (%)", "setting": "KB8.5 tumor xenograft; Table 15 study, 30 mg/kg, i.p., not statistically different from vehicle", "result": 60, "unit": "%"},
      {"measurement": "CR (complete tumor regressions)", "setting": "[1]; 1 mg/kg, q4d × 3, i.p.", "result": 7},
      {"measurement": "Δ Tumor volume, Day 24", "setting": "[1]; 1 mg/kg, q4d × 3, i.p.", "result": "−151 ± 63", "unit": "mm^3"},
      {"measurement": "% Max Regression (Day)", "setting": "[1]; 1 mg/kg, q4d × 3, i.p., D46", "result": 75, "unit": "%"},
      {"measurement": "CR (complete tumor regressions)", "setting": "[1]; 1 mg/kg, q4d × 3, i.p., listed as paclitaxel", "result": "7/9"},
      {"measurement": "Survival (alive/total)", "setting": "[2]; 30 mg/kg, Q4d × 3, i.p.", "result": "9/9"}
    ]},
    {"smiles": "CC(C)(C)[C@H](c1nc(-c2cc(F)ccc2F)cn1Cc1ccccc1)N(CC[C@H](N)CF)C(=O)CO", "note": "[Compound IIa]", "values": [
      {"measurement": "ΔT/ΔC, Day 11 (%)", "setting": "KB8.5 tumor xenograft; 5 mg/kg, i.v.", "result": 19, "unit": "%"},
      {"measurement": "CR (complete tumor regressions)", "setting": "[1]; 0.625 mg/kg, q4d × 3, i.v.", "result": 0},
      {"measurement": "Δ Tumor volume, Day 24", "setting": "[1]; 0.625 mg/kg, q4d × 3, i.v.", "result": "−32 ± 172", "unit": "mm^3"},
      {"measurement": "% Max Regression (Day)", "setting": "[1]; 0.625 mg/kg, q4d × 3, i.v., D10", "result": 69, "unit": "%"},
      {"measurement": "Δ Tumor volume, Day 24", "setting": "[1]; 4 mg/kg, q4d × 3, i.v.", "result": "−176 ± 31", "unit": "mm^3"},
      {"measurement": "% Max Regression (Day)", "setting": "[1]; 4 mg/kg, q4d × 3, i.v., D60", "result": "100, %"},
      {"measurement": "CR (complete tumor regressions)", "setting": "[1]; 4 mg/kg, q4d × 3, i.v., listed as COMPOUND IIa", "result": 9},
      {"measurement": "CR (complete tumor regressions)", "setting": "[1]; 4 mg/kg, q4d × 3, i.v., listed as compound IIa", "result": "9/9"},
      {"measurement": "CR (complete tumor regressions)", "setting": "[1]; [6]", "result": 0},
      {"measurement": "Δ Tumor volume, Day 21", "setting": "[1]; [6]", "result": "921 ± 341", "unit": "mm^3"},
      {"measurement": "ΔT/ΔC, Day 21 (%)", "setting": "[1]; [6]", "result": 161, "unit": "%"},
      {"measurement": "CR (complete tumor regressions)", "setting": "[1]; [7]", "result": 0},
      {"measurement": "Δ Tumor volume, Day 21", "setting": "[1]; [7]", "result": "765 ± 196", "unit": "mm^3"},
      {"measurement": "ΔT/ΔC, Day 21 (%)", "setting": "[1]; [7]", "result": 133, "unit": "%"},
      {"measurement": "CR (complete tumor regressions)", "setting": "[1]; [8]", "result": 0},
      {"measurement": "Δ Tumor volume, Day 21", "setting": "[1]; [8]", "result": "114 ± 110", "unit": "mm^3"},
      {"measurement": "ΔT/ΔC, Day 21 (%)", "setting": "[1]; [8]", "result": 20, "unit": "%"},
      {"measurement": "% Max. Regression (Day)", "setting": "[1]; Study 2, 0.5 mg/kg, q4d × 3, i.v, D10", "result": "55 (D10) %"},
      {"measurement": "CR (complete tumor regressions)", "setting": "[1]; Study 2, 1 mg/kg, q4d × 3, i.v", "result": 6},
      {"measurement": "Δ Tumor volume, Day 21", "setting": "[1]; Study 2, 1 mg/kg, q4d × 3, i.v", "result": "−194 ± 27", "unit": "mm^3"},
      {"measurement": "% Max. Regression (Day)", "setting": "[1]; Study 2, 1 mg/kg, q4d × 3, i.v, D63", "result": "89 (D63) %"},
      {"measurement": "CR (complete tumor regressions)", "setting": "[1]; Study 2, 2 mg/kg, q4d × 3, i.v", "result": 5},
      {"measurement": "Δ Tumor volume, Day 21", "setting": "[1]; Study 2, 2 mg/kg, q4d × 3, i.v", "result": "−201 ± 23", "unit": "mm^3"},
      {"measurement": "% Max. Regression (Day)", "setting": "[1]; Study 2, 2 mg/kg, q4d × 3, i.v, D63", "result": "87 (D63) %"},
      {"measurement": "Survival (alive/total)", "setting": "[2]; 0.25 mg/kg, Q4d × 3, i.v", "result": "9/9"},
      {"measurement": "Survival (alive/total)", "setting": "[2]; 0.5 mg/kg, Q4d × 3, i.v", "result": "9/9"},
      {"measurement": "Survival (alive/total)", "setting": "[2]; 1 mg/kg, Q4d × 3, i.v", "result": "8/9"}
    ]}
  ]
}
